Reference: patent publication US11066392B2, “Inhibitors of indoleamine 2,3-dioxygenase and methods of their use” (BRISTOL-MYERS SQUIBB COMPANY, priority 2017, dated 2021)
Read-outs that look alike come from different tables or passages of the source.

Tests used:
[1] = target: indoleamine 2,3-dioxygenase (IDO) (Homo sapiens, UniProt P14902); assay: HeLa cell-based indoleamine 2,3-dioxygenase (IDO) assay (kynurenine production, IFNγ-stimulated); conditions: HeLa cells
human IDO1 = target: T1, human IDO1 (Homo sapiens, UniProt P14902); assay: HEK293 cell-based indoleamine 2,3-dioxygenase (IDO) assay; conditions: human IDO1/HEK293 cells
T1 construct: expressed in transfected cells
T1 sequence (P14902 whole entry): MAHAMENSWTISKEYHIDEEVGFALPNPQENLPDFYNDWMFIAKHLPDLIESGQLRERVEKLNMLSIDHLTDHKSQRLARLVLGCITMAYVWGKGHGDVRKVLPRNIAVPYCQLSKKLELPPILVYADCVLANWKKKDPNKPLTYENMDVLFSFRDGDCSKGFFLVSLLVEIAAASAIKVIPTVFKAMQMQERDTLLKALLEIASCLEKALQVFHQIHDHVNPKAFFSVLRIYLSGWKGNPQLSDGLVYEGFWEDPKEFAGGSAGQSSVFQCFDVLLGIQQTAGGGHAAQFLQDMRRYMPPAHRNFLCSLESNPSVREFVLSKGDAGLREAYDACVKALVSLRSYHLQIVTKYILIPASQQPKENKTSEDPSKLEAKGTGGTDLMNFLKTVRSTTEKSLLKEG
Method: Assessment of inhibitor activity in HEK293 cell-based indoleamine 2,3-dioxygenase (IDO) assay.
HEK293 cells were transfected with a pCDNA-based mammalian expression vector harboring human IDO1 cDNA (NM 002164.2) by electroporation. They were cultured in medium (DMEM with 10% FBS) containing 1 mg/ml G418 for two weeks. Clones of HEK293 cells that stably expressed human IDO1 protein were selected and expanded for IDO inhibition assay.
The human IDO1/HEK293 cells were seeded at 10,000 cells per 50 μL per well with RPMI/phenol red free media contains 10% FBS in a 384-well black wall clear bottom tissue culture plate (Matrix Technologies LLC) 100 nL of certain concentration of compound was then added to each well using ECHO liquid handling systems. The cells were incubated for 20 hours in 37° C. incubator with 5% CO2.
The compound treatments were stopped by adding trichloroacetic acid (Sigma-Aldrich) to a final concentration at 0.2%. The cell plate was further incubated at 50° C. for 30 minute. The equal volume supernatant (20 μL) and 0.2% (w/v) Ehrlich reagent (4-dimethylaminobenzaldehyde, Sigma-Aldrich) in glacial acetic acid were mixed in a new clear bottom 384-well plate. This plate was then incubated at room temperature for 30 minute. The absorbance at 490 nm was measured on Envision plate reader.
Compound IC50 values were calculated using the counts of 500 nM of a reference standard treatment as one hundred percent inhibition, and counts of no compound but DMSO treatment as zero percent inhibition.
Activity for compounds described herein is provided in Table 1, wherein potency levels are provided as follows: (Potency: IDO IC50: A<0.01 μM; B<0.1 μM; C<10 μM)

[2] = IFNγ 25 ng/mL, 48 hour incubation, read-out: IDO Hela IC50
[3] = 20 hours incubation, read-out: IDO1 HEK Human IC50
[4] = potency class, read-out: Patent Potency Hela IC50 A < 10 nM, B > 10 nM, C > 100 nM

Sequence of indoleamine 2,3-dioxygenase (IDO) (P14902 whole entry): as above

IC50 [1, 2] [nM] | IC50 (human IDO1; [3]) [nM] | IC50 [1, 4] [nM] | IC50 (human IDO1; potency class, read-out: Patent Potency HEK IC50 A < 10 nM, B > 10 nM, C > 100 nM) [nM] | SMILES
10 | 22 |  |  | C[C@@H](NC(=O)c1cnccn1)[C@H]1CC[C@@H](c2ccnc3ccc(F)cc32)CC1 [Example 35, N-((R)-1-((cis)-4-(6-fluoroquinolin-4-yl)cyclohexyl)ethyl)pyrazine-2-carboxamide]
10 | 13 |  |  | C[C@@H](NC(=O)c1ccncc1)[C@H]1CC[C@@H](c2ccnc3ccc(F)cc32)CC1 [Example 34, N-((R)-1-((cis)-4-(6-fluoroquinolin-4-yl)cyclohexyl)ethyl)isonicotinamide]
10 | 5 |  |  | C[C@@H](NC(=O)c1ccc(F)nc1)[C@H]1CC[C@@H](c2ccnc3ccc(F)cc32)CC1 [Example 7, 6-Fluoro-N-((R)-1-((1s,4S)-4-(6-fluoroquinolin-4-yl)cyclohexyl)ethyl)nicotinamide]
30 | 56 |  |  | COc1ccc(-c2ccc(C(=O)N[C@H](C)[C@H]3CC[C@@H](c4ccnc5ccc(F)cc54)CC3)cn2)cn1 [Example 1, N—((R)-1-((1s,4s)-4-(6-Fluoroquinolin-4-yl)cyclohexyl)ethyl)-6′-methoxy-2,3′-bipyridine-5-carboxamide]
30 | 39 |  |  | C[C@@H](NC(=O)c1cncnc1)[C@H]1CC[C@@H](c2ccnc3ccc(F)cc32)CC1 [Example 36, N-((R)-1-((cis)-4-(6-fluoroquinolin-4-yl)cyclohexyl)ethyl)pyrimidine-5-carboxamide]
 |  | < 10 | < 10 | CC[C@@H](NC(=O)c1ccc(OC)nc1)[C@H]1CC[C@@H](c2ccnc3ccc(F)cc32)CC1 (single isomer, unassigned) [Example 10b, N-(1-(4-(6-Fluoroquinolin-4-yl)cyclohexyl)propyl)-6-methoxynicotinamide]
10 | 11 |  |  | C[C@@H](NC(=O)c1ccc(-n2cccn2)nc1)[C@H]1CC[C@@H](c2ccnc3ccc(F)cc32)CC1 [Example 4, N-((R)-1-((1s,4S)-4-(6-Fluoroquinolin-4-yl)cyclohexyl)ethyl)-6-(1H-pyrazol-1-yl)nicotinamide]
 | 28 |  |  | Cc1ncc(C(=O)N[C@H](C)[C@H]2CC[C@@H](c3ccnc4ccc(F)cc43)CC2)cn1 [Example 9, N-((R)-1-((1s,4S)-4-(6-Fluoroquinolin-4-yl)cyclohexyl)ethyl)-2-methylpyrimidine-5-carboxamide]
10 | 10 |  |  | C[C@@H](NC(=O)c1cccnc1)[C@H]1CC[C@@H](c2ccnc3ccc(F)cc32)CC1 [Example 33, N—((R)-1-((cis)-4-(6-fluoroquinolin-4-yl)cyclohexyl)ethyl)nicotinamide]
 | 1 | < 10 |  | COc1ccc(C(=O)N[C@H](C)[C@H]2CC[C@@H](c3ccnc4ccc(F)cc43)CC2)cn1 [Example 2, N-((R)-1-((1s,4S)-4-(6-Fluoroquinolin-4-yl)cyclohexyl)ethyl)-6-methoxynicotinamide]
10 | 5 |  |  | COc1ncc(C(=O)N[C@H](C)[C@H]2CC[C@@H](c3ccnc4ccc(F)cc43)CC2)cn1 [Example 8, N-((R)-1-((1s,4S)-4-(6-Fluoroquinolin-4-yl)cyclohexyl)ethyl)-2-methoxypyrimidine-5-carboxamide]
 | 10 | < 10 |  | C[C@@H](NC(=O)c1ccc(Cl)nc1)[C@H]1CC[C@@H](c2ccnc3ccc(F)cc32)CC1 [Example 5, 6-Chloro-N-((R)-1-((1s,4S)-4-(6-fluoroquinolin-4-yl)cyclohexyl)ethyl)nicotinamide]
